Experimental data from US20140336187A1, “METHODS FOR TREATING LEISHMANIASIS” (HOWARD UNIVERSITY, priority 2011, published 2014).
Values joined by “and” are separate entries in the source; they are usually repeats but may differ in a detail not shown here. Identical values can stand only once.

Tests used:
[1] = tested on: L. donovani promastigotes; assay: Antileishmanial activity on L. donovani promastigotes (resazurin cell viability assay); assay type: cell-based, Leishmania donovani; settings: for IC50: L. donovani promastigotes, resazurin assay, 0.03 to 44 μM, means ± S.E. of three experiments, read-out: IC50 (μM) Promastigotes; for SI Values Promastigotes: SI = IC50 (mouse fibroblast) ÷ IC50 (promastigotes)
Description: Approximately 5×10^5 promastigotes/ml of L. donovani Khartum strain were inoculated into Yeager's Liver infusion tryptose (YLIT) medium or Brain Heart Infusion (BHI) broth (Difco), supplemented with glucose (2.5 mg/ml), 50 U/ml Pen-Strep and 0.005 mM Hemin at 25-26° C. and subcultured bi-weekly, Mikus et al., Parasitol Int., 48(3):265-9 (2000) (Mikus and Steverding, 2000).
(§1) The Leishmanicidal properties of fifteen naphthoquinone compounds (FIG. 1) on L. donovani promastigotes proliferation were assessed by the resazurin cell viability assay. Promastigotes from axenic culture were harvested during the exponential phase of growth (at least 5-day old culture), incubated at a concentration of 2×10^5 cells/200 μl with and without dilutions of compounds in 96-well microtitre plates. Dilutions of compounds covering 0.03 μM to 44 μM were prepared. […] 20 μl Alamar Blue (12.5 mg resazurin dissolved in 100 ml distilled water (Sigma #R7017)) (Mikes and Steverding, 2000) were added to each well and plates were incubated for another 2 hrs. […] Decrease in fluorescence (inhibition), were expressed as percentage of the fluorescence of control cultures and were plotted against the concentrations of compounds. The IC50 values were calculated from the sigmoidal inhibition curves.

[2] = tested on: L. donovani amastigotes; assay: Antileishmanial activity on L. donovani amastigotes (resazurin assay); assay type: cell-based, Leishmania donovani; settings: for IC50: Leishmania donovani, L. donovani amastigotes, 48 hrs exposure, resazurin assay, means ± S.E., read-out: IC50 (μM) Amastigotes; for SI Values Amastigotes: SI = IC50 (mouse fibroblast) ÷ IC50 (amastigotes)
Description: Amastigotes were grown in MAA/20 medium (Amastigote medium consisted of: M199 medium supplemented with 0.5% Tryptone broth, 0.01 mM bathocuproinedisulfonic acid, 0.108 mM L-Cysteine, 15 mM D-glucose, 0.685 mM L-glutamine, and 0.025 mM Hemin and 20% fetal calf serum (FCS) at a pH of 5.5).
Amastigotes were plated at a concentration of 2×10^5 cells/[…] 24 hrs before treatment with various compounds. Amastigotes were treated with dilutions of compounds in 96-well microtitre plates. Dilutions of compounds ranging from 0.03 μM to 44 μM were prepared and added to amastigotes. Amastigotes were exposed to compounds for 48 hrs and were incubated at 37° C. […] After the incubation period, 20 μl Alamar Blue (12.5 mg resazurin dissolved in 100 ml distilled water) (Mikes and Steverding, 2000) were added to each well and plates were incubated for another 2 hrs. […] Decrease of fluorescence (inhibition) was expressed as percentage of the fluorescence of control cultures and was plotted against the concentrations of compounds. The IC50 values were calculated from the sigmoidal inhibition curves. Amphotericin B was used as a reference drug.

[3] = tested on: L. donovani promastigotes; assay: Dose and time-dependent inhibitory effect on L. donovani promastigotes (2, 4, 6, 24 hours exposure); assay type: cell-based, Leishmania donovani; settings: Leishmania donovani, promastigotes, means ± S.E.
Description: as §1
A time and dose-dependent inhibitory effect of all 15 imido-substituted naphthoquinone compounds was assessed on their activity on promastigotes of L. donovani. Promastigotes were plated in 96-well plates and incubated in different concentrations of each compound (0.03 to 44 μM), incubated for two hours and viabilities assayed by the resazurin assay. A two hour exposure was assessed by calculation of IC50 values of each compound. Values are means±S.E. (Standard Error).
(§2) A time and dose-dependent inhibitory effect of all 15 imido-substituted naphthoquinone compounds was assessed on their activity on promastigotes of L. donovani. Promastigotes were plated in 96-well plates and incubated in different concentrations of each compound (0.03 to 44 μM), incubated for four hours and cell viabilities assayed by the resazurin assay. A four hour exposure was assessed by calculation of IC50 values of each compound. Values are means±S.E. (Standard Error).
Promastigotes were plated in 96-well plates and incubated in different concentrations of each compound (0.03 to 44 μM), incubated for six hours and cell viabilities assayed by the resazurin assay. A six hour exposure was assessed by calculation of IC50 values of each compound. Values are means±S.E. (Standard error).
as §2, with “incubated for twenty four hours” for “incubated for four hours”, “assay. A twenty four hour” for “assay. A four hour”

[4] = tested on: NIH 3T3 BALB/c mouse fibroblast cell line; assay: Cytotoxic assessment on NIH 3T3 BALB/c mouse fibroblasts (resazurin assay); settings: read-out: IC50 (μM) Fibroblasts; NIH 3T3 BALB/c mouse fibroblasts; 48 hrs; resazurin assay; means ± S.E.
Description: Fibroblasts cells (4×10^4 cells/nil and adding 100 μl per well) were incubated with different concentrations of the naphthoquinone compounds (FIGS. 1) (3, 7, 13, 29, 33, and 44 μM) for 48 hrs after which viability of live fibroblast cells was determined by the Resazurin Method using a microplate reader (Bio-Tek Instruments EL311).
NIH 3T3 mouse fibroblasts were maintained in Roswell Park Memorial Institute (RPMI) medium supplemented with 10% Fetal calf serum, 50 units/ml penicillin, 50 units/ml streptomycin B in a humidified incubator at 37° C. in the presence of 5% CO2 (Scala et al., 2010).
Assays were performed to assess the cytotoxicity of these compounds in 96-well microtiter plates, with each well containing 100 μl of RPMI medium supplemented with 10% bovine calf scrum with 50 U/ml Pen-Strep. The cells were plated at a concentration of 4×10^3 cells/well (4×10^4 cells/ml). Fibroblast cells were then incubated with compounds for 48 hrs and inspected under an inverted microscope to assure growth of the controls and sterile conditions. 10 μl of resazurin solution (12.5 mg resazurin dissolved in 100 nil distilled water) were added to each well and the plates were incubated for another 2 hrs. The plates were read with a microplate reader at 570 nm. Experiments were done at least 3 times in triplicates (Scala et al., 2010).
Cell viability was determined using Resazurin Assay. The IC50 values were calculated and expressed as means±S.E (standard error).

[5] = read-out: Antileishmanial Activity IC50 (μM) 2 hours, 2 hours exposure
[6] = read-out: Antileishmanial Activity IC50 (μM) 4 hours, 4 hours exposure
[7] = 6 hours exposure, read-out: Antileishmanial Activity IC50 (μM) 6 hours
[8] = 24 hours exposure, read-out: Antileishmanial Activity IC50 (μM) 24 hours

Row | SMILES | IC50 ([1]; Leishmania donovani) | SI Values Promastigotes [1] | IC50 [2] | SI Values Amastigotes [2] | IC50 [3, 5] | IC50 [3, 6] | IC50 [3, 7] | IC50 [3, 8] | melting point | IC50 [4] | IC50 [1]
1 | O=C1C(Br)=C(N(C(=O)c2ccccc2Cl)C(=O)c2ccccc2Cl)C(=O)c2ccccc21 [IMDNQ5, N-(3-Bromo-1,4-dioxo-1,4-dihydronaphthalen-2-yl)-2-chloro-N-(2-chlorobenzoyl)-benzamide] | 31.3 µM | 0.15 and 0.15±0.3 | 4.67 µM | 1.01±0.21 and 1.01 | 19 ± 1.5 µM | 0.57 µM | 1.66 ± 0.5 µM | 5.85 ± 2.2 µM | 232 to 234 °C | 4.7 µM | –
2 | COc1cc(C(=O)N(C(=O)c2cc(OC)c(OC)c(OC)c2)C2=C(Cl)C(=O)c3ccccc3C2=O)cc(OC)c1OC [IMDNQ11, 2-bis-(3,4,5-trimethoxybenzoyl)amino-3-chloro-1,4-naphthoquinone] | 22.9 ± 0.9 µM | 0.28±0.01 and 0.28 | 27.3 µM | – | 198 ± 16.8 µM | 22.7 ± 14.2 µM | 4.06 ± 1.4 µM | 8.82 ± 2 µM | 171 to 172 °C | 6.41 ± 2.9 µM | 11.85 ± 0.001 µM
3 | O=C1C(Cl)=C(N(C(=O)c2ccc(F)cc2)C(=O)c2ccc(F)cc2)C(=O)c2ccccc21 [IMDNQ3, N-(3-Chloro-1,4-dioxo-1,4-dihydronaphthalen-2-yl)-4-fluoro-N-(4-fluorobenzoyl)-benzamide] | 10.8 µM | 2.30±1.05 and 2.30 | 4.1 µM | 6.06±1.77 and 6.06 | 11 ± 12.9 µM | 41.35 ± 0.21 µM | 2.32 ± 1.9 µM | 3.23 ± 5.3 µM | 284 to 286 °C | 24.8 µM | –
4 | O=C1C(Cl)=C(N(C(=O)c2ccc(Cl)cc2)C(=O)c2ccc(Cl)cc2)C(=O)c2ccccc21 [IMDNQ1, 4-Chloro-N-(4-chlorobenzoyl)-N-(3-chloro-1,4-dioxo-1,4-dihydronaphthalen-2-yl)-benzamide] | 1.84 ± 0.9 µM | 2.23±1.09 and 2.23 | 11.8 ± 9.7 µM | 0.35±0.42 and 0.35 | 5.53 ± 0.3 µM | 1100 ± 50.3 µM | 19.2 ± 18.4 µM | 5.28 ± 1.8 µM | 212 to 213 °C | 4.1 ± 3.5 µM | –
5 | COc1ccc(C(=O)N(C(=O)c2ccc(OC)cc2)C2=C(Cl)C(=O)c3ccccc3C2=O)cc1 [IMDNQ9, 2-bis-(4-methoxybenzoyl)amino-3-chloro-1,4-naphthoquinone] | 5.64 ± 0.9 µM | 0.60±0.08 and 0.60 | 4.67 ± 0.8 µM | 0.73±0.13 and 0.73 | 77.3 ± 119 µM | 23.3 ± 9.2 µM | 123 ± 35.1 µM | 7.23 ± 0.7 µM | 283 to 287 °C | 3.41 ± 1.1 µM | –
